Residue numbers refer to the chain shown, from its start. Each block holds one molecule with its values, some of them ahead of it.
Assays:
[1] = clinical development; cited from earlier work
[2] = molecular target: T1, loss-of-function mutant CaSR Q459R (Homo sapiens, UniProt P41180, Q459R); assay: IP1 accumulation assay, Ca2+ concentration-response curve of CaSR Q459R; type: cell-based; details: preliminary experiment; for Concentration at which the PAM effect is initiated: Ca2+ concentration-response curve; for Effect on potency for Ca2+ in CaSR Q459R: increasing PAM concentrations
T1 construct: expressed in transfected cells
T1 sequence (P41180 20-1078 Q459R): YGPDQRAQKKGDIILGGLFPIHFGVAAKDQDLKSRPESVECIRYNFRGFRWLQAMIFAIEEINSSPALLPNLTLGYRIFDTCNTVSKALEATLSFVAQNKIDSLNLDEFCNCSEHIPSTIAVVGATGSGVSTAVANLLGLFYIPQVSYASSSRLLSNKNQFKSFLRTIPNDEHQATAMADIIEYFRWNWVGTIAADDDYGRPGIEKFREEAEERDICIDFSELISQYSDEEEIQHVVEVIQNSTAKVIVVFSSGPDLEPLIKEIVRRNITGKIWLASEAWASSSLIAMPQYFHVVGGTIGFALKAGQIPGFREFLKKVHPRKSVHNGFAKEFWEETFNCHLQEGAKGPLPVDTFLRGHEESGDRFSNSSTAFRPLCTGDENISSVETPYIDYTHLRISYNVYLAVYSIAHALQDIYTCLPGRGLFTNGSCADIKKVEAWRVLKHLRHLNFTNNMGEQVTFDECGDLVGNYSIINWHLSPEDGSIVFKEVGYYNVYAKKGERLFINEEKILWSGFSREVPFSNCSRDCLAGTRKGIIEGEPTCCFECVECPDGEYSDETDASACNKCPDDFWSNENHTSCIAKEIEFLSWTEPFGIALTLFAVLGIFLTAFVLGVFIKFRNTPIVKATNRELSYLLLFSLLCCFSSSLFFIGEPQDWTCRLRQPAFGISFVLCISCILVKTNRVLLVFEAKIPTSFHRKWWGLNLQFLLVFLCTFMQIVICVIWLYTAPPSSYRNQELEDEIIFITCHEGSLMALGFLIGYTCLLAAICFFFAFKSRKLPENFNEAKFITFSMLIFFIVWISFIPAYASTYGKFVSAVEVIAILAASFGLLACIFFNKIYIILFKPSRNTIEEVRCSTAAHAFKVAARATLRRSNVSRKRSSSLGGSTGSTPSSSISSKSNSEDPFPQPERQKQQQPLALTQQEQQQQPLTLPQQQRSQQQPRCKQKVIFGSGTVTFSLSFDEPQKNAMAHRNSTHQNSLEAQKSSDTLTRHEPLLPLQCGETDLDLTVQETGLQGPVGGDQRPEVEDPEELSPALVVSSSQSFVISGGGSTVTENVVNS
Description: In comparison with loss-of-function mutant S170A, Q459R is a naturally occurring loss-of-function mutant that has previously been associated with familial hypocalciuric hypercalcemia (FHH). The effect of increasing concentrations of CaSR Nb4 or the clinically used PAM cinacalcet on the Ca^2+ concentration-response curve were measured with the IP1 accumulation assay. […] The PAM effect of CaSR Nb4 (0.04 μM) is initiated at a much lower concentration than for cinacalcet (5 μM).
Inositol monophosphate (IP1) accumulation was measured using the commercially available HTRF® IP1 accumulation kit (Cisbio Bioassays, Codolet, France) and an EnVision multimode plate reader (PerkinElmer, Waltham, Mass., USA). Unless stated otherwise, the cells were washed once with 100 μL/well assay buffer and stimulated for 30 minutes at 37° C. with 50 μL/well ligand(s) diluted in assay buffer supplemented with 20 mM LiCl. Following stimulation, the cells were washed once with 100 μL/well and lysed for 30 minutes at room temperature with 30 μL/well lysis buffer provided with the kit. The lysed cells were diluted 1:2 with assay buffer after which 10 μL/well was pipetted to a white 384-well OptiPlate (PerkinElmer, Waltham, Mass., USA). Next, 10 μL of a detection solution consisting of 2.5% IP1-d2 conjugate and 2.5% anti-IP1 antibody diluted in assay buffer was added to each well. Fluorophore emissions were measured after the plate was stored in the dark for 1 h. The 615/665 nm emission ratios measured upon excitation at 340 nm were converted to IP1 concentrations with an IP1 standard curve according to the manufacturer's instructions.

[3] = molecular target: T2, CaSR 7-transmembrane domain allosteric binding site (Homo sapiens, UniProt P41180); assay: [3H]evocalcet radioligand displacement
T2 sequence (P41180 20-1078): T1 sequence (P41180 20-1078 Q459R) with R440Q
Description: For the seven different nanobodies with potencies in the 10 to 600 nM range, further characterization of their recognition site on the CaSR antigen was performed, since the identification of the nanobody binding-sites at the CaSR is key to understand their interaction and mode-of-action at a molecular and structural level, and will further aid in the development of second-generation nanobodies with enhanced pharmacological parameters. Nanobodies belonging to each family of the five different nanobody families are expected to interact with distinct regions of the CaSR.

Molecule: COc1cccc([C@@H](C)NCCCc2ccccc2Cl)c1 [NPS R-568, reference compound]
Oral bioavailability [1]: < 5%

Concentration at which the PAM effect is initiated [2]: 5 µM
Effect on potency for Ca2+ in CaSR Q459R [2]: able to increase the potency for Ca^2+
Displacement of [3H]evocalcet binding [3]: did displace
Molecule: C[C@@H](NCCCc1cccc(C(F)(F)F)c1)c1cccc2ccccc12 [cinacalcet, reference compound]

Concentration at which the PAM effect is initiated [2]: 0.04 µM
Effect on potency for Ca2+ in CaSR Q459R [2]: able to increase the potency for Ca^2+
Displacement of [3H]evocalcet binding [3]: do not displace
B1: Nb4: llama-derived CaSR-specific nanobody acting as PAM, SEQ ID NO:5 (protein)
VHH: QVQLVESGGGLVQAGGSLRLSCAASGRTFSTYRMGWFRQGLGKEREFVAAITANGVRTFYTDSVKGRFTISRDNAKNTLYLQMNSLQPDDTAVYLCAARRKGIFTVQQAQDITDWDYWGQGTQVTVSS
modifications: CaSR Nb4
